Data on 25 molecules can be found in ChEMBL document CHEMBL4020776, “Stabilizing HDAC11 with SAHA to assay slow-binding benzamide inhibitors” (Bioorg Med Chem Lett, 2017).

The term IC50 denotes the midpoint of a concentration-inhibition curve. As a reminder, the inhibition is the drop in the measured response relative to a control, in per cent.

Some results are limits rather than exact numbers.

Assay [1] concerns the target T1, Histone deacetylase 11 (Homo sapiens, UniProt Q96DB2).
T1 sequence (Q96DB2 whole entry): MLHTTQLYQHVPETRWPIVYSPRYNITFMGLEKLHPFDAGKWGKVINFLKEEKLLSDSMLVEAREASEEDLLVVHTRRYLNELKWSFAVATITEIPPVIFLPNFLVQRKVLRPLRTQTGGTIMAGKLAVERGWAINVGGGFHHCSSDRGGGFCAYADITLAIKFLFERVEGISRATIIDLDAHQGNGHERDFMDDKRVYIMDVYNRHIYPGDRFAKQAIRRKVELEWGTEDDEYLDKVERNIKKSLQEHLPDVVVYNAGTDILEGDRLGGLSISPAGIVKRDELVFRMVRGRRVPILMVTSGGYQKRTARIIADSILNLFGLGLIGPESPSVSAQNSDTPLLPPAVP
As to the kind of experiment: Inhibition of recombinant C-terminal His-tagged HDAC11 (unknown origin) expressed in baculovirus infected Sf9 cells using Ac-Arg-Gly-Lys(Ac)-AMC as substrate pretreated for 3 hrs followed by substrate addition after 30 mins by fluorometric method.

In assay [2] the target is T2, Histone deacetylase 11 (Homo sapiens) (UniProt Q96DB2).
T2 sequence (whole entry): T1 sequence (Q96DB2 whole entry)
Description: Inhibition of recombinant C-terminal His-tagged HDAC11 (unknown origin) expressed in baculovirus infected Sf9 cells at 2 uM using Ac-Arg-Gly-Lys(Ac)-AMC as substrate pretreated for 3 hrs followed by substrate addition after 30 mins by fluorometric method relative to control.

In assay [3] the target is T2, Histone deacetylase 11 (Homo sapiens). Description: Inhibition of recombinant C-terminal His-tagged HDAC11 (unknown origin) expressed in baculovirus infected Sf9 cells at 2 uM using Ac-Arg-Gly-Lys(Ac)-AMC as substrate pretreated for 3 hrs followed by substrate addition after 30 mins in presence of 0.2 uM SAHA by fluorometric method relative to control.
The target is the same in assay [4]. As to the kind of experiment: Inhibition of recombinant C-terminal His-tagged HDAC11 (unknown origin) expressed in baculovirus infected Sf9 cells at 5 uM using Ac-Arg-Gly-Lys(Ac)-AMC as substrate pretreated followed by substrate addition after 30 mins by fluorometric method. The conditions noted are these: TDE = time-dependent effect.
The target in assay [5] is T1, Histone deacetylase 11. Description: Inhibition of recombinant C-terminal His-tagged HDAC11 (unknown origin) expressed in baculovirus infected Sf9 cells using Ac-Arg-Gly-Lys(Ac)-AMC as substrate pretreated for 3 hrs followed by substrate addition after 30 mins in presence of 0.2 uM SAHA by fluorometric method.

For `Nc1ccccc1NC(=O)/C=C/c1cn([C@H]2C[C@@H](CO)N(Cc3ccccc3)C2)nn1`, the half-maximal inhibitory concentration (IC50) on Histone deacetylase 11 [1] is 2140 nM. The values for the inhibition in assay [2] and in assay [3] were 31% and 36%, respectively.
Regarding `Nc1ccccc1NC(=O)/C=C/c1cn([C@@H]2C[C@H](C(=O)O)N(CCc3ccccc3)C2)nn1`, the inhibition in assay [2] is below 0%; in assay [3] it was below 10%.
With `Nc1ccccc1NC(=O)/C=C/c1cn([C@@H]2C[C@@H](C(=O)O)N(CCCc3ccccc3)C2)nn1`, the inhibition in assay [2] and in assay [3] was below 10% in each case.
Consider `Nc1ccccc1NC(=O)/C=C/c1cn([C@@H]2C[C@@H](CO)N(Cc3ccccc3)C2)nn1`, for which the inhibition was below 10% in assay [2] and 22% in assay [3].
As for `Nc1ccccc1NC(=O)/C=C/c1cn([C@@H]2C[C@@H](CO)N(CCCc3ccccc3)C2)nn1`, the inhibition is below 10% in assay [2] and 13% in assay [3].
In the case of `Nc1ccccc1NC(=O)/C=C/c1cn([C@H]2C[C@H](CO)N(CCCc3ccccc3)C2)nn1`, the inhibition in assay [2] was below 10%; in assay [3], 16%.
In the same order, the values of `Nc1ccccc1NC(=O)/C=C/c1cn([C@@H]2C[C@H](CO)N(CCCc3ccccc3)C2)nn1` are below 0% and 12%.
As for `Nc1ccccc1NC(=O)/C=C/c1cn([C@@H]2C[C@@H](C(=O)O)N(Cc3ccccc3)C2)nn1`, the inhibition was below 0% in assay [2] and below 10% in assay [3].
For the molecule `Nc1ccccc1NC(=O)/C=C/c1cn([C@H]2C[C@H](CO)N(CCc3ccccc3)C2)nn1`, the inhibition in assay [2] and in assay [3] was below 10% in each case.
As for `Nc1ccccc1NC(=O)/C=C/c1cn([C@@H]2C[C@@H](C(=O)O)N(CCc3ccccc3)C2)nn1`, the inhibition in assay [2] and in assay [3] was below 10% each time.
Take `Nc1ccccc1NC(=O)/C=C/c1cn([C@H]2C[C@H](C(=O)O)N(CCCc3ccccc3)C2)nn1`: the inhibition is below 0% in assay [2] and below 10% in assay [3].
Turning to `Nc1ccccc1NC(=O)/C=C/c1cn([C@@H]2C[C@@H](CO)N(CCc3ccccc3)C2)nn1`, in assay [3], the inhibition was below 10%.
Regarding `Nc1ccccc1NC(=O)/C=C/c1cn([C@@H]2C[C@H](C(=O)O)N(CCCc3ccccc3)C2)nn1`, the inhibition in assay [2] and in assay [3] was below 10% in each case.
Turning to `Nc1ccccc1NC(=O)c1ccc(CNC(=O)OCc2cccnc2)cc1` [ENTINOSTAT], the inhibition result in assay [4] was “Tde”; in assay [2] it was 67%; in assay [3], 59%. The IC50 on Histone deacetylase 11 [1] came out at 900 nM; at Histone deacetylase 11 [5], 1300 nM.
Regarding `Nc1ccccc1NC(=O)/C=C/c1cn([C@H]2C[C@@H](C(=O)O)N(Cc3ccccc3)C2)nn1`, the inhibition in assay [2] is below 0%; in assay [3], below 10%.
Take `Nc1ccccc1NC(=O)/C=C/c1cn([C@H]2C[C@H](CO)N(Cc3ccccc3)C2)nn1`: the figures for the inhibition in assay [2] and in assay [3] were below 0% and 14%, respectively.
On to `Nc1ccccc1NC(=O)/C=C/c1cn([C@H]2C[C@H](C(=O)O)N(CCc3ccccc3)C2)nn1`, for which the inhibition is below 0% in assay [2] and below 10% in assay [3].
For the molecule `Nc1ccccc1NC(=O)/C=C/c1cn([C@@H]2C[C@H](C(=O)O)N(Cc3ccccc3)C2)nn1`, the inhibition in assay [3] is below 10%.
With `Nc1ccccc1NC(=O)/C=C/c1cn([C@@H]2C[C@H](CO)N(Cc3ccccc3)C2)nn1`, the inhibition in assay [2] was below 10%; in assay [3], 14%.
On to `Nc1ccccc1NC(=O)/C=C/c1cn([C@H]2C[C@@H](CO)N(CCCc3ccccc3)C2)nn1`, for which the inhibition in assay [2] was below 0%; in assay [3] it was 19%.
Consider `Nc1ccccc1NC(=O)/C=C/c1cn([C@H]2C[C@@H](C(=O)O)N(CCCc3ccccc3)C2)nn1`, for which the inhibition in assay [2] is below 0%; in assay [3], below 10%.
In the same order, the values of `Nc1ccccc1NC(=O)/C=C/c1cn([C@H]2C[C@H](C(=O)O)N(Cc3ccccc3)C2)nn1` are 12% and below 10%.
In the same order, the values of `Nc1ccccc1NC(=O)/C=C/c1cn([C@@H]2C[C@H](CO)N(CCc3ccccc3)C2)nn1` are below 0% and below 10%.
On to `Nc1ccccc1NC(=O)/C=C/c1cn([C@H]2C[C@@H](C(=O)O)N(CCc3ccccc3)C2)nn1`, for which the inhibition in assay [3] is below 10%.
On to `Nc1ccccc1NC(=O)/C=C/c1cn([C@H]2C[C@@H](CO)N(CCc3ccccc3)C2)nn1`, for which the inhibition is below 10% in assay [2] and 20% in assay [3].
